# Assay results reported in patent US12582593B2, “Oral care compositions for gum health” (The Procter & Gamble Company, priority 2021, dated 2026).
# Test system: Primary Human Gingival Fibroblast (HGF)
# Assay: In-vitro 2D tissue damage assay via Collagen-1 marker (Collagen-1 ELISA after TBHP challenge)
# Type: cell-based
# Settings: 0.5% gel dilution 24 hr, 50 μM TBHP 1 hr, 24 hr in complete media; supernatant
# Method: In vitro gingival 2D gingival fibroblast tissue damage/prevention was used to assess the effects of treatment with Inventive Compositions and Comparative compositions on collagen-1 ELISA assay.
# The obtained tissues were kept in cold Dulbecco's modified Eagle's medium (DMEM, Gibco) with 10% fetal bovine serum and a cocktail of antibiotics and antimycotics. Next, the tissues were minced with a blade and spun down at 4° C. and 200×g for 5-10 minutes to separate and wash the pellets. Resuspended tissue explants were laid onto a 60 mm dish and kept in an incubator. Every 3-5 days during culture, fibroblasts grown from tissue explants were washed and continued under passage using 0.2% trypsin. Proliferation tests and cell damage recovery experiments were performed when the fibroblasts reached passages 3-10.
# Primary Human gingival fibroblast (HGF) cell was maintained in a 37° C. incubator with 5% CO2 saturation. Dulbecco's modified Eagle's medium (DMEM, Gibco) containing 10% fetal calf serum, 1% penicillin-streptomycin was used as the complete culture medium, which was changed every 2-3 days.
# 1.8×10^5 Cells were seeded in a 6-well plate and cultured with complete medium in at 37° C. and 5% CO2 for 24 hr. […] The supernatant of cell culture was collected and analysed by Collagen-1 ELISA kit (CUSABIO).
substance,measurement,value
TGF-B [Positive control (TGF-B)],Collagen-1,155.59 ng/mL
